Reference: patent US11345725B2, “Bis-thioether stapled peptides as inhibitors of PRC2 function” (Research Foundation of the City University of New York, priority 2019, dated 2022)
Like-named read-outs stand apart in the source and are kept apart here. Starred links: 1 amine or outer side, 2 acyl side, 3 side chain; linkers in the order of their positions; H or OH if unused. Positions of bridges follow the written chain, without caps; N, C: chain ends. Residues, ends and D or L forms follow the SMILES beside them. Octanediyl(1,8) = C(CCCC[*:2])CCC[*:1]; X1 = C(C[*:1])C[*:2]

Experiments:
[1] = test system: endogenous PRC2 extracted from a human clear cell renal carcinoma cell line (Caki-1); experiment: H3K27Me3 Inhibition (% at 1 mM)
Description: (§1) Table printed on a drawing sheet, FIG. 5A
Head of the field: H3K27Me3 Inhibition (% at 1 mM)
(§2) FIG. 5C is a CD spectra of stapled peptides and their linear counterparts measured in water at 20° C.;
(§3) FIG. 5E is a plot of H3K27me3 inhibition obtained in an enzymatic assay using endogenous PRC2 extracted from Caki-1 cells and recombinant PRC2 complex (for compound 11);
First copying reader's note: Half-life units (min or h) stand in the cells; the compound structures are in the upper table of FIG. 5A.
Where the first naming reader finds the target: passage: using as catalytic complex endogenous PRC2 extracted from a human clear cell renal carcinoma cell line (Caki-1)

FIG. 5A = experiment: FIG. 5A
Description: as §1, §2, §3
First reader's note: Half-life units (min or h) stand in the cells; the compound structures are in the upper table of FIG. 5A.

circular dichroism = settings: deionized water; pH unbuffered; 20 °C; 25 uM
Caki-1 cells = assay type: cell-based, human
Description: All of the cells were grown adherently.
Antiproliferative assays. […] For the following 72h, every 24 h the cell culture media was changed and fresh media containing the compounds was added, 1% DMSO was used as control. After 72h of treatment, both floating and attached cells were collected and analyzed.

FIG. 2D = experiment: FIG. 2D
Source text: Table printed on a drawing sheet, FIG. 2D
(§4) The patent's description of the figure: FIG. 2A depicts the results of biochemical assays showing structure of the synthesized stapled peptides, and their correspondent helicity and IC50 values for inhibition of H3K27 trimethylation in vitro, as determined by a histone methyltransferase colorimetric assay optimized using endogenous PRC2 extracted from a human clear cell renal carcinoma cell line (Caki-1);
(§5) FIG. 2B depicts a CD spectra of stapled peptides and their linear counterparts measured in water at 20° C.;
FIG. 2C illustrates a plot of H3K27 trimethylation inhibition using the enzymatic in vitro assay described in FIG. 2A, with varying concentrations of 2 (GN-ZB2), positive control GSK126, and using an equimolar combination of both compounds to test their synergistic effects. A summary of the IC50 values for inhibition of H3K27me3 determined from the experiments is also presented. […]
(§6) FIG. 2D show both Chymotrypsin-based proteolytic degradation as well as the plasma assay show remarkable stability of the disclosed i, i+4 and i, i+7 12 bisthioether stapled peptides. The rate of peptide proteolysis was monitored by HPLC and HPLC-MS analysis.
First reader's note: The Assay column joins the peptide number (label) with the matrix (chymotrypsin or plasma, condition); units stand in the cells.

[2] = Circular dichroism (helicity); assay type: physicochemical; settings: CD in water, 20° C.
Description: Circular dichroism spectra were recorded on a CHIRASCAN™ spectrometer. Peptides were dissolved in deionized water, at a concentration of 25 μM. CD signal was monitored at 1 nm intervals from 180 to 260 nm with a 1-mm path quartz cuvette. The data reported is the average of three scans, subtracting the background. The helical content of each peptide was determined using prism 7 software, with molar ellipticity [θ][deg·cm^2dmol^−1] being calculated using the following formula: [θ]=1000000×0/(C×#of residues×l), where θ is the ellipticity read out from Chirascan, C is the concentration of peptide samples in μM, l is the pathlength of the cuvette measured in mm. The percentage helicity was calculated with formula:% Hellicity=100×[θ]222/[θ]max222, where [θ]max222=−31500×[1−([…])].

Plasma stability test = assay type: in vitro ADME; settings: human plasma, 37° C.
Description: 1 mM stock solution of the corresponded peptide was prepared in PBS buffer (pH 7.4). Next, 50 μL from […] this solution were added to 1 mL of human plasma (Sigma-Aldrich, P9523). The mixture was incubated at 37° C. with mechanical shaking at 300 rpm. Aliquots were withdrawn in portions of 150 μL at different time points for analysis and mixed with 60 μL ACN/EtOH (1:1 v/v) for plasma protein precipitation. After centrifugation at 12000 rpm for 5 min, the supernatant was collected and analyzed by HPLC and HPLC-MS.

[3] = test system: endogenous PRC2 extracted from a human clear cell renal carcinoma cell line (Caki-1); experiment: IC50 (uM)
Source text: Table printed on a drawing sheet, FIG. 2A
Head of the field: IC50 (uM)
as §4, §5
FIG. 2C illustrates a plot of H3K27 trimethylation inhibition using the enzymatic in vitro assay described in FIG. 2A, with varying concentrations of 2 (GN-ZB2), positive control GSK126, and using an equimolar combination of both compounds to test their synergistic effects. A summary of the IC50 values for inhibition of H3K27me3 determined from the experiments is also presented. Calculation of the combination index using the equation described by Chou et al. indicated a marked synergistic effect (CI=0.53) of 2 (GN-ZB2) and GSK126;
as §6
First copying reader's note: IC50 cells hold the value and its ± error together.
Where the first naming reader finds the target: description_of_the_figure: histone methyltransferase colorimetric assay optimized using endogenous PRC2 extracted from a human clear cell renal carcinoma cell line (Caki-1)

[4] = target: T1, α-chymotrypsin from bovine pancreas type II (Bos taurus, UniProt P00766); experiment: Chymotrypsin stability test; assay type: in vitro ADME
T1 construct: freshly prepared α-chymotrypsin from bovine pancreas type II, ≥40 U/mg; purchased; host or cells: bovine pancreas
Description: Assays were performed using freshly prepared α-chymotrypsin from bovine pancreas type II, ≥40 U/mg. The enzyme was initially reconstituted in HCl […] (1 μg/μL), and kept in ice until used. Peptides stock solutions were prepared in assay buffer (50 mM Tris.HCl pH=8.0, 560 μM calcium chloride, 0.1% Tween-20) containing <3% of DMSO. The reactions were performed at a 200 μL scale, in assay buffer, at final concentrations of 50 μM for peptide and […] for α-chymotrypsin (10 μL from the reconstitution solution). The mixture was incubated at 37° C. and aliquots were withdrawn in portions of 25 μL at different time points for analysis. The removed aliquots were mixed with 25 μL of water 1% TFA, and then treated with a column for detergent removal following the manufacturer's protocol (Pierce, Catalog #:87776). The rate of peptide proteolysis was monitored by HPLC and HPLC-MS analysis. Control experiments were carried out under the same conditions but using BSA instead of α-chymotrypsin.

CC[C@H](C)[C@H](NC(=O)[C@H](CC(C)C)NC(=O)[C@H](Cc1ccccc1)NC(=O)[C@H](CC(=O)O)NC(=O)[C@H](Cc1c[nH]cn1)NC(=O)[C@H](CCSC)NC(=O)[C@H](CO)NC(=O)[C@@H](NC(=O)[C@@H]1CSCCCSC[C@H](NC(=O)[C@H](CC(N)=O)NC(=O)[C@H](CCCNC(=N)N)NC(=O)[C@H](CS)NC(=O)[C@H](CC(C)C)NC(C)=O)C(=O)N[C@@H](CCSC)C(=O)N[C@@H](CC(C)C)C(=O)N[C@@H](Cc2c[nH]cn2)C(=O)N1)C(C)C)C(N)=O [11 (GN-ZW11), LCRN[CMLHC](CH2)3VSMHDFLI] (Ac-LCRNCMLHCVSMHDFLI-NH2; linker 5-9 via X1)
H3K27Me3 Inhibition (% at 1 mM) [1]: 98.3 % at 1 mM | Proteolytic Stability (Chymotripsin, t1/2) (FIG. 5A): 14.4 h | Proteolytic Stability (Plasma, t1/2) (FIG. 5A): 7.3 h | helicity (circular dichroism): 95.1%

CC[C@H](C)n1cc(C)c2c(C(=O)NCc3c(C)cc(C)[nH]c3=O)cc(-c3ccc(N4CCNCC4)nc3)cc21 [GSK126]
IC50 (Caki-1 cells; Caki-1 cells, 72h daily treatment, colorimetric method, read-out: IC50 cell proliferation): 0.15 ± 0.06 µM | effect on cell proliferation (Caki-1 cells; Caki-1 cells, 72h of daily treatment): significantly inhibits cell proliferation

CC[C@H](C)[C@@H]1NC(=O)[C@@H](NC(=O)[C@H](CC(=O)O)NC(=O)[C@@H](NC(=O)[C@@H](NC(C)=O)[C@@H](C)O)C(C)C)CSCCCSC[C@@H](C(=O)N[C@@H](CC(C)C)C(=O)N[C@@H](CO)C(=O)N[C@H](C(=O)N[C@@H](CC(C)C)C(=O)N[C@@H](C)C(=O)N[C@@H](CCC(=O)O)C(=O)N[C@@H](CCC(=O)O)C(=O)N[C@H](C(=O)N2CCC[C@H]2C(=O)N[C@@H](CCC(N)=O)C(=O)N[C@@H](CC(N)=O)C(N)=O)C(C)C)C(C)C)NC(=O)[C@H](CO)NC(=O)[C@H](C)NC1=O [2 Chymotrypsin] (Ac-TVDCIASCLSVLAEEVPQN-NH2; linker 4-8 via X1)
Half Life (FIG. 2D): 40.9 h

Ac-TVDKIASALSVLAEEVPQN-NH2 [compound 1, reference compound]
helicity [2]: 4.8% | time to full degradation in plasma (Plasma stability test): 5 min | helicity (circular dichroism): 4.8%

Ac-TVDKIASA[CSVLAEEC]PQN-CONH2 CH2(CH2)4CH2 (TVDKIASACSVLAEECPQN; N-acetyl, C-amide, hexylene bisthioether staple; Synthetic bisthioether stapled peptide; compound 4; THIOETH (9)..(16) (CH2)6 linker between residues 9 and 16) [4 | SEQ ID NO: 6]
IC50 [3]: 10.1 ± 1.1 µM

CC[C@H](C)[C@@H]1NC(=O)[C@@H](NC(=O)[C@H](CC(=O)O)NC(=O)[C@@H](NC(=O)[C@@H](NC(C)=O)[C@@H](C)O)C(C)C)CSCCCSC[C@@H](C(=O)N[C@@H](CC(C)C)C(=O)N[C@@H](CO)C(=O)N[C@H](C(=O)N[C@@H](CC(C)C)C(=O)N[C@@H](C)C(=O)N[C@@H](CCC(=O)O)C(=O)N[C@@H](CCC(=O)O)C(=O)N[C@H](C(=O)N2CCC[C@H]2C(=O)N[C@@H](CCC(N)=O)C(=O)N[C@@H](CC(N)=O)C(N)=O)C(C)C)C(C)C)NC(=O)[C@H](CO)NC(=O)[C@H](C)NC1=O [2 Plasma] (Ac-TVDCIASCLSVLAEEVPQN-NH2; linker 4-8 via X1)
Half Life (FIG. 2D): 20.6 h

Ac-VINEEYKIWKKNTPFL-NH2 [compound 13, reference compound]
time to full degradation by chymotrypsin [4]: half an hour | half-life ([4]; bovine, read-out: t1/2 chymotrypsin stability assay (converted)): 0.5 h | helicity (circular dichroism): 16.4%

Ac-TVDKIASA[CSVLAEEC]PQN-CONH2 CH2(CH2)6CH2 (TVDKIASACSVLAEECPQN; N-acetyl, C-amide, octylene bisthioether staple; Synthetic bisthioether stapled peptide; Compound 6; THIOETH (9)..(16) (CH2)8 linker between residues 9 and 16) [6 | SEQ ID NO: 8]
IC50 [3]: 17 ± 1.4 µM

CC[C@H](C)[C@H](NC(=O)[C@H](CCCCN)NC(=O)[C@H](CC(=O)O)NC(=O)[C@@H](NC(=O)[C@@H](NC(C)=O)[C@@H](C)O)C(C)C)C(=O)N[C@@H](C)C(=O)N[C@@H](CO)C(=O)N[C@@H](C)C(=O)N[C@H]1CSCCCCCCCCSC[C@@H](C(=O)N2CCC[C@H]2C(=O)N[C@@H](CCC(N)=O)C(=O)N[C@@H](CC(N)=O)C(N)=O)NC(=O)[C@H](CCC(=O)O)NC(=O)[C@H](CCC(=O)O)NC(=O)[C@H](C)NC(=O)[C@H](CC(C)C)NC(=O)[C@H](C(C)C)NC(=O)[C@H](CO)NC1=O (Ac-TVDKIASACSVLAEECPQN-NH2; linker 9-16 via Octanediyl(1,8))
helicity (circular dichroism): 12.1%

Ac-TVDKIASA[CSVLAEEC]PQN-CONH2 CH2(CH2)5CH2 (TVDKIASACSVLAEECPQN; N-acetyl, C-amide, heptylene bisthioether staple; Synthetic bisthioether stapled peptide; Compound 5; THIOETH (9)..(16) (CH2)7 linker between residues 9 and 16) [5 | SEQ ID NO: 7]
IC50 [3]: 27.1 ± 1.2 µM

CC[C@H](C)[C@@H]1NC(=O)[C@@H](NC(=O)[C@H](Cc2ccc(O)cc2)NC(=O)[C@H](CCC(=O)O)NC(=O)[C@H](CCC(=O)O)NC(=O)[C@H](CC(N)=O)NC(=O)[C@@H](NC(=O)[C@@H](NC(C)=O)C(C)C)[C@@H](C)CC)CSCCCSC[C@@H](C(=O)N[C@@H](CC(N)=O)C(=O)N[C@H](C(=O)N2CCC[C@H]2C(=O)N[C@@H](Cc2ccccc2)C(=O)N[C@@H](CC(C)C)C(N)=O)[C@@H](C)O)NC(=O)[C@H](CCCCN)NC(=O)[C@H](Cc2c[nH]c3ccccc23)NC1=O (Ac-VINEEYCIWKCNTPFL-NH2; linker 7-11 via X1)
helicity (circular dichroism): 18.4%

CC[C@H](C)[C@@H]1NC(=O)[C@@H](NC(=O)[C@H](CC(=O)O)NC(=O)[C@@H](NC(=O)[C@@H](NC(C)=O)[C@@H](C)O)C(C)C)CSCCCSC[C@@H](C(=O)N[C@@H](CC(C)C)C(=O)N[C@@H](CO)C(=O)N[C@H](C(=O)N[C@@H](CC(C)C)C(=O)N[C@@H](C)C(=O)N[C@@H](CCC(=O)O)C(=O)N[C@@H](CCC(=O)O)C(=O)N[C@H](C(=O)N2CCC[C@H]2C(=O)N[C@@H](CCC(N)=O)C(=O)N[C@@H](CC(N)=O)C(N)=O)C(C)C)C(C)C)NC(=O)[C@H](CO)NC(=O)[C@H](C)NC1=O [2 (GN-ZB2), TVD[CIASC](CH2)3LSVLAEEVPQN] (Ac-TVDCIASCLSVLAEEVPQN-NH2; linker 4-8 via X1; C-terminus assumed)
IC50 (Caki-1 cells; 72 h): 0.25 ± 0.03 µM | stability in plasma (Plasma stability test): high resistance to proteolysis
